Where two headings read alike, the source gives them in different places. Values belong to the molecule of their own block, whether it stands above or below them.
Target: T1, F508delCFTR (Homo sapiens, UniProt P13569, DEL508-508)
T1 construct: expressed in transfected cells; host or cells: CFBE41o- human lung-derived epithelial cells (CFBE4lo-F508delCFTR-HRP), doxycycline-inducible
Experiment: Cell Surface Expression-Horse Radish Peroxidase (CSE-HRP) Assay;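 as to Maximum % activity (with co-corrector): co-corrector and positive control are both the same reference corrector at 2 µM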;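 as to Maximum % activity (without co-corrector): percent of the 2 µM on-plate positive control corrector response above DMSO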
Assay type: cell-based
Conditions: for Emax / Maximum % activity (with co-corrector): maximum at any tested concentration, normalized to on-plate positive control; for Emax: read-out: Maximum % activity (without co-corrector)

[1] = test compound without co-corrector
[2] = test compound without co-corrector, read-out: EC50 (without co-corrector)
[3] = with co-corrector (2 μM of 3-[(2R,4R)-4-({[1-(2,2-difluoro-1,3-benzodioxol-5-yl)cyclopropyl]carbonyl}amino)-7-methoxy-3,4-dihydro-2H-chromen-2-yl]benzoic acid), read-out: EC50 (with co-corrector)
[4] = with co-corrector (2 μM of 3-[(2R,4R)-4-({[1-(2,2-difluoro-1,3-benzodioxol-5-yl)cyclopropyl]carbonyl}amino)-7-methoxy-3,4-dihydro-2H-chromen-2-yl]benzoic acid)
[5] = CSE-HRP, test compound without co-corrector, read-out: EC50 (without co-corrector)
[6] = CSE-HRP, with co-corrector (2 μM of 3-[(2R,4R)-4-({[1-(2,2-difluoro-1,3-benzodioxol-5-yl)cyclopropyl]carbonyl}amino)-7-methoxy-3,4-dihydro-2H-chromen-2-yl]benzoic acid), read-out: EC50 (with co-corrector)
[7] = CSE-HRP, with co-corrector (2 μM)

T1 sequence (P13569 with tags, fused parts or gaps DEL508-508): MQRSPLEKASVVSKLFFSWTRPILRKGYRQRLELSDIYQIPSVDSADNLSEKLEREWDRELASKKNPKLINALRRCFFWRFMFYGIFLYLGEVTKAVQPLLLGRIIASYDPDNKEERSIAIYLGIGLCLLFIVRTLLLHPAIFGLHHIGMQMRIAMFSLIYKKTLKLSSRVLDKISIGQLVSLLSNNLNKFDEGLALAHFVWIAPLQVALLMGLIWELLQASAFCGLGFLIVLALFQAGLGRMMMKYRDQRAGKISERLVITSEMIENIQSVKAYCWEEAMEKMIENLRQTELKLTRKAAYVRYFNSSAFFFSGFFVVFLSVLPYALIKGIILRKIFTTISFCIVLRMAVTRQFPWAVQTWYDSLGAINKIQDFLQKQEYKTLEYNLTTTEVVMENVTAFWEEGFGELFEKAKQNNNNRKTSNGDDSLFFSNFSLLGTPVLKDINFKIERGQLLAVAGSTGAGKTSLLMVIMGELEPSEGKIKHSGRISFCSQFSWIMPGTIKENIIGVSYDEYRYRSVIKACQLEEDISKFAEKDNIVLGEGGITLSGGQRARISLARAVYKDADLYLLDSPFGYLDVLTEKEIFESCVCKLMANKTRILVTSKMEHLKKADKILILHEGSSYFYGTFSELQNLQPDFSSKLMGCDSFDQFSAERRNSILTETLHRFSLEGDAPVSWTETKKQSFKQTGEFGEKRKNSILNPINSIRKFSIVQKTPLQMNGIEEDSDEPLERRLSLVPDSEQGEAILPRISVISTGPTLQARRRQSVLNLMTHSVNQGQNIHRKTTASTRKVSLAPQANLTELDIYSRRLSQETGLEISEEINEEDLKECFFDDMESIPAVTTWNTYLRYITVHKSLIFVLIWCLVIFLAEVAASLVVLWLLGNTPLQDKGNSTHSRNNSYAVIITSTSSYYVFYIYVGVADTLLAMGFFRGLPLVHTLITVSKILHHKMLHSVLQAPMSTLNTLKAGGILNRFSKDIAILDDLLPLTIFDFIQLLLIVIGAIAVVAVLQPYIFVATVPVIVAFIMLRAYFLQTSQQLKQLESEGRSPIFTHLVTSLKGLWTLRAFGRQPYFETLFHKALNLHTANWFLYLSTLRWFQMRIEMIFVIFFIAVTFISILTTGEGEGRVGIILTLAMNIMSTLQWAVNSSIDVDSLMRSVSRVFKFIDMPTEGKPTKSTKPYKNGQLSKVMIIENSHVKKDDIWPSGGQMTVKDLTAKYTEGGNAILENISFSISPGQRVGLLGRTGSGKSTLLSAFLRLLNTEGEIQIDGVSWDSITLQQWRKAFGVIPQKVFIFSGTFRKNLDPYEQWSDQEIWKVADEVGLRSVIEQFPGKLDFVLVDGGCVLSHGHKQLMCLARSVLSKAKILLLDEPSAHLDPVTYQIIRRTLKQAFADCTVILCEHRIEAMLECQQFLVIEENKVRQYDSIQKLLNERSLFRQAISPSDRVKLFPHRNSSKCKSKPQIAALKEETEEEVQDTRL

SMILES: COc1ncc(C2CCC2)cc1CN[C@H]1[C@H](C(C)(C)C)[C@@H](C(=O)O)N(C(=O)[C@@H]2CCCCO2)[C@H]1c1cccc2c1OCC2 [Example I-301]
EC50 [5]: 1000 to 10000 nM | EC50 [6]: 1000 to 10000 nM | Maximum % activity (with co-corrector) [7]: +++ (≥350) | Emax (CSE-HRP, without co-corrector): > 200%

SMILES: COc1ncc(C2CCC2)cc1CN[C@H]1[C@H](C(C)(C)C)[C@@H](C(=O)O)N(C(=O)[C@@H]2CCCO2)[C@H]1c1ccccc1C [Example I-265]
EC50 [5]: 1000 to 10000 nM | EC50 [6]: 1000 to 10000 nM | Maximum % activity (with co-corrector) [7]: +++ (≥350) | Emax (CSE-HRP, without co-corrector): > 200%

SMILES: COc1ccc(C(C)(C)C)cc1CN[C@H]1[C@H](C(C)(C)C)[C@@H](C(=O)O)N(C(=O)C2C3CCCC32)[C@H]1c1ccccc1 (stereo partly drawn) [Example 46, (2S,3S,4S,5S)-1-(bicyclo[3.1.0]hexane-6-carbonyl)-3-tert-butyl-4-{[(5-tert-butyl-2-methoxyphenyl)methyl]amino}-5-phenylpyrrolidine-2-carboxylic acid]
EC50 [2]: 1000 to 10000 nM | EC50 [3]: < 1000 nM | Maximum % activity (with co-corrector) (with co-corrector (2 μM)): +++ (≥350) | Emax (without co-corrector): > 200%

SMILES: COc1cc(C(F)(F)F)ccc1CN[C@H]1[C@H](C(C)(C)C)[C@@H](C(=O)O)N(C(=O)C2C3CCCC32)[C@H]1c1ccccc1 (stereo partly drawn) [Example 65, (2S,3S,4S,5S)-1-(bicyclo[3.1.0]hexane-6-carbonyl)-3-tert-butyl-4-({[2-methoxy-4-(trifluoromethyl)phenyl]methyl}amino)-5-phenylpyrrolidine-2-carboxylic acid]
EC50 [2]: 1000 to 10000 nM | EC50 [3]: 1000 to 10000 nM | Maximum % activity (with co-corrector) (with co-corrector (2 μM)): +++ (≥350) | Emax (without co-corrector): 100 to 200%

SMILES: COc1ccc(C(C)(C)C)cc1CN[C@H]1[C@H](C(C)(C)C)[C@@H](C(=O)O)N(C(=O)C2CCCCC2C(=O)N2CCC2)[C@H]1c1ccccc1 (stereo partly shown) [Example I-149]
EC50 [2]: 1000 to 10000 nM | EC50 [3]: 1000 to 10000 nM | Maximum % activity (with co-corrector) (with co-corrector (2 μM)): +++ (≥350) | Emax (without co-corrector): > 200%

SMILES: COc1ncc(C(C)(C)C)cc1CN[C@H]1[C@H](C(C)(C)C)[C@@H](C(=O)O)N(C(=O)C2CCCCC2)[C@H]1c1ccc(F)cc1 [Example I-130]
EC50 [2]: < 1000 nM | EC50 [3]: < 1000 nM | Maximum % activity (with co-corrector) (with co-corrector (2 μM)): +++ (≥350) | Emax (without co-corrector): > 200%

SMILES: COc1ncc(C2CCC2)cc1CN[C@H]1[C@H](C(C)(C)C)[C@@H](C(=O)O)N(C(=O)OC(C)C)[C@H]1c1ccccc1 [Example I-214]
EC50 [2]: 1000 to 10000 nM | EC50 [3]: 1000 to 10000 nM | Maximum % activity (with co-corrector) (with co-corrector (2 μM)): +++ (≥350) | Emax (without co-corrector): > 200%

SMILES: Cc1cc(C(F)(F)F)cc(N[C@@H]2[C@@H](C(C)(C)C)[C@H](C(=O)O)N(C(=O)C3CCCCC3)[C@@H]2c2ccccc2)n1 [Example 3, (2R,3R,4R,5R)-3-tert-butyl-1-(cyclohexanecarbonyl)-4-{[6-methyl-4-(trifluoromethyl)pyridin-2-yl]amino}-5-phenylpyrrolidine-2-carboxylic acid]
EC50 [2]: 1000 to 10000 nM | EC50 [3]: 1000 to 10000 nM | Maximum % activity (with co-corrector) (with co-corrector (2 μM)): ++ (≥150 and <350) | Emax (without co-corrector): < 100%

Other lines, results leading:

Emax [1]: > 200% | EC50 [2]: < 1000 nM | EC50 [3]: < 1000 nM | Maximum % activity (with co-corrector) (with co-corrector (2 μM)): +++ (≥350)
SMILES: COc1ccc(C(C)(C)C)cc1CN[C@@H]1[C@@H](C(C)(C)C)[C@H](C(=O)O)N(C(=O)C2CCCCC2)[C@@H]1c1ccccc1 (racemic) [III-107]

Emax [1]: < 100% | EC50 [2]: > 10000 nM | Maximum % activity (with co-corrector) [4]: ++ (≥150 and <350) | EC50 [3]: 1000 to 10000 nM
SMILES: COCCOc1ncc(C(F)(F)F)cc1CN[C@@H]1[C@@H](C(C)(C)C)[C@H](C(=O)O)N(C(=O)C2CCCCC2)[C@@H]1c1ccccc1 (racemic) [III-80]

EC50 [5]: 1000 to 10000 nM | EC50 [6]: 1000 to 10000 nM | Maximum % activity (with co-corrector) [7]: +++ (≥350) | Emax (CSE-HRP, without co-corrector): < 100%
SMILES: COc1ccc(C(F)(F)F)cc1CN[C@@H]1[C@@H](C(C)(C)C)[C@H](C(=O)O)N(C(=O)Cc2ccccc2)[C@@H]1c1ccccc1 (racemic) [II-32]

Emax [1]: > 200% | EC50 [2]: 1000 to 10000 nM | Maximum % activity (with co-corrector) [4]: +++ (≥350) | EC50 [3]: 1000 to 10000 nM
SMILES: COc1ccc(C(C)(C)C)cc1CN[C@H]1[C@H](C(C)(C)C)[C@@H](C(=O)O)N(C(=O)[C@H]2CCC[C@H](OC)C2)[C@H]1c1cccnc1N(C)C (relative stereo) [II-448]

Emax [1]: 100 to 200% | EC50 [2]: 1000 to 10000 nM | Maximum % activity (with co-corrector) [4]: +++ (≥350) | EC50 [3]: 1000 to 10000 nM
SMILES: COc1ncc(C(F)(F)F)cc1CN[C@H]1[C@H](C(C)(C)C)[C@@H](C(=O)O)N(C(=O)OC(C)C)[C@H]1c1cccnc1OC [II-512]

Emax [1]: > 200% | EC50 [2]: 1000 to 10000 nM | Maximum % activity (with co-corrector) [4]: +++ (≥350) | EC50 [3]: < 1000 nM
SMILES: COc1ccc(C(C)(C)C)cc1CN[C@H]1[C@H](C(C)(C)C)[C@@H](C(=O)O)N(C(=O)C2CCC(C)(C)C2)[C@H]1c1ccccc1 (stereo partly shown) [II-401]

Emax [1]: > 200% | EC50 [2]: 1000 to 10000 nM | Maximum % activity (with co-corrector) [4]: +++ (≥350) | EC50 [3]: < 1000 nM
SMILES: COc1ccc(C23CC(C2)C3)cc1CN[C@H]1[C@H](C(C)(C)C)[C@@H](C(=O)O)N(C(=O)C2CCCCC2)[C@H]1c1cccnc1OC [II-486]

EC50 [5]: < 1000 nM | EC50 [6]: < 1000 nM | Maximum % activity (with co-corrector) [7]: +++ (≥350) | Emax (CSE-HRP, without co-corrector): > 200%
SMILES: COc1ccc(-c2cccs2)cc1CN[C@H]1[C@H](C(C)(C)C)[C@@H](C(=O)O)N(C(=O)C2CCCCC2)[C@H]1c1ccccc1 [II-275]

Emax [1]: > 200% | EC50 [2]: 1000 to 10000 nM | Maximum % activity (with co-corrector) [4]: +++ (≥350) | EC50 [3]: 1000 to 10000 nM
SMILES: C#CCOC(=O)N1[C@H](C(=O)O)[C@@H](C(C)(C)C)[C@H](NCc2cc(C(C)(C)C)ccc2OC)[C@@H]1c1ccccc1 [II-384]

EC50 [5]: 1000 to 10000 nM | EC50 [6]: < 1000 nM | Maximum % activity (with co-corrector) [7]: +++ (≥350) | Emax (CSE-HRP, without co-corrector): 100 to 200%
SMILES: COc1cc(C(F)(F)F)ccc1CN[C@H]1[C@H](C(C)(C)C)[C@@H](C(=O)O)N(C(=O)OCC(C)C)[C@H]1c1ccccc1 [II-161]

Emax [1]: < 100% | EC50 [2]: 1000 to 10000 nM | Maximum % activity (with co-corrector) [4]: ++ (≥150 and <350) | EC50 [3]: 1000 to 10000 nM
SMILES: CC(C)OC(=O)N1[C@H](C(=O)O)[C@@H](C(C)(C)C)[C@H](NCC2CCCC(C(F)(F)F)C2)[C@@H]1c1ccccc1 (stereo partly shown) [II-584]

EC50 [5]: 1000 to 10000 nM | EC50 [6]: 1000 to 10000 nM | Maximum % activity (with co-corrector) [7]: ++ (≥150 and <350) | Emax (CSE-HRP, without co-corrector): < 100%
SMILES: COc1ccc(CN[C@@H]2[C@@H](C(C)(C)C)[C@H](C(=O)O)N(C(=O)C3CCCCC3)[C@@H]2c2ccccc2)c(OC)c1Cl (racemic) [II-3]

EC50 [5]: 1000 to 10000 nM | EC50 [6]: 1000 to 10000 nM | Maximum % activity (with co-corrector) [7]: +++ (≥350) | Emax (CSE-HRP, without co-corrector): 100 to 200%
SMILES: COc1ccc(-c2cncc(F)c2)cc1CN[C@H]1[C@H](C(C)(C)C)[C@@H](C(=O)O)N(C(=O)C2CCCCC2)[C@H]1c1ccccc1 [II-287]

Emax [1]: < 100% | EC50 [2]: 1000 to 10000 nM | Maximum % activity (with co-corrector) [4]: ++ (≥150 and <350) | EC50 [3]: 1000 to 10000 nM
SMILES: Cc1cc(C(F)(F)F)cc(N[C@@H]2[C@@H](C(C)(C)C)[C@H](C(=O)O)N(C(=O)C3CCCCC3)[C@@H]2c2ccccc2)[n+]1[O-] (racemic) [III-32]

Emax [1]: < 100% | EC50 [2]: 1000 to 10000 nM | Maximum % activity (with co-corrector) [4]: ++ (≥150 and <350) | EC50 [3]: 1000 to 10000 nM
SMILES: CC(C)N(C(=O)N1[C@H](c2ccccc2)[C@H](NCc2ccccc2OC(F)F)[C@@H](C)[C@@H]1C(=O)O)C(C)C (racemic) [III-34]

Emax [1]: 100 to 200% | EC50 [2]: 1000 to 10000 nM | Maximum % activity (with co-corrector) [4]: +++ (≥350) | EC50 [3]: 1000 to 10000 nM
SMILES: COc1cccc(OC)c1CN[C@H]1[C@H](C(C)(C)C)[C@@H](C(=O)O)N(C(=O)C2CCCCC2)[C@H]1c1ccccc1 [II-407]

Emax [1]: < 100% | EC50 [2]: > 10000 nM | Maximum % activity (with co-corrector) [4]: ++ (≥150 and <350) | EC50 [3]: 1000 to 10000 nM
SMILES: CCS(=O)(=O)NC(=O)[C@H]1[C@H](C(C)(C)C)[C@@H](Nc2cc(C(F)(F)F)cc(C)n2)[C@@H](c2ccccc2)N1C(=O)C1CCCCC1 (racemic) [III-53]
